# Source: article PMC6093650, “Antidepressive and anxiolytic effects of ostruthin, a TREK-1 channel activator” (PLoS ONE, 2018)
# Columns and labels:
# TASK-1 = molecular target: T1, TASK-1 (Homo sapiens, UniProt O14649); experiment: whole-cell patch-clamp of TASK-1 currents in a 293T cell line; format: cell-based; conditions: n = 10
# T1 construct: expressed in transfected cells
# Excerpt: For recordings of K^+ channel currents, we prepared stable cell lines for TREK-1, TWIK-related acid-sensitive K^+ channel (TASK-1), strongly inwardly rectifying K^+ channel (Kir2.1), and human ether-a-go-go-related gene (HERG-1) channels and transiently expressed other channels in 293T cells using a calcium-phosphate transfection method. For the establishment of the stable lines, we used lentiviral vectors, and the preparation methods for the lentiviral vectors were described in our previous report. TR-1 cells, which stably expressed TREK-1 channel and were grown on a small cover glass (3 × 18 mm), were placed in a recording chamber with an internal volume of 200 μl. Whole-cell currents were recorded in Tyrode solution using an Axopatch 200B amplifier (Axon Instruments, Foster City, CA) at 25°C. Tyrode solution contained (in mM): NaCl 140, KCl 5.4, NaH2PO4 0.33, CaCl2 2, MgCl2 1, HEPES 5, and glucose 5.5 (pH 7.4 adjusted with NaOH). […] Perfusion (100 μl/min) was continued to maintain the water level throughout recordings. pH and osmotic pressure of solutions were measured with a pH meter (Horiba, Kyoto, Japan) and a freezing point osmometer (Knauer, Berlin, Germany), respectively. […]
# [1] = system: mice anxiety-like behavior; experiment: elevated plus maze; format: in vivo
# Excerpt: (§1) Male ICR mice (n = 317 in total) aged 5 weeks and weighing 32 ± 2 g were purchased from Shimizu Laboratory Supplies (Kyoto, Japan). For the social defeat stress test, we used 28 C57BL/6J mice (5 weeks old, Shimizu Laboratory Supplies) and 30 ICR mice (7–8 weeks old, Charles River Labs Japan, Yokohama, Kanagawa, Japan). Mice were maintained for at least 1 week prior to experiments. Animals were kept in groups in plastic cages. They had free access to food and water, and were kept in a 12-h light/dark cycle (08:00–20:00). Experiments were carried out between 10:00 and 18:00 in a quiet and air-conditioned experimental room, in which mice were habituated for at least 30 min before each experiment. Animal experiments were performed in accordance with the guidelines of the Physiological Society of Japan and were approved by the Committees on Animal Experiments at Kansai Medical University and the Kurashiki University of Science and the Arts. Ostruthin was initially dissolved in DMSO at higher concentration (100 mM) and then diluted in phosphate-buffered saline (PBS). The diluted solution was mixed vigorously for more than 10 min before the experiments, and an equal volume of DMSO was added to PBS as a control. PBS and ostruthin were administered intraperitoneally 30 min before mice behavioral tests (0.01 ml/g body weight). Each animal was used only once, except for the wheel running test, which was carried out immediately after elevated plus maze.
# The elevated plus maze apparatus consisted of four arms set in a cross pattern from a neutral central square (6 × 6 cm). Two opposite arms were delimited by vertical walls (closed arms, 30 × 15 × 6 cm), whereas the other two arms had unprotected edges (open arms, 30 × 6 cm). The maze was elevated 40 cm above the floor. At the beginning of each 5 min test session, a mouse was placed in the central neutral area, facing one of the open arms. The total number of the entries to open arms and time spent in the open arms were measured. After removal of the animal, the apparatus was cleaned and wiped.
# [2] = system: depression-like behavior of mice; experiment: social defeat stress test; format: in vivo; conditions: C57BL/6J mice after 9 days of defeat, p = 0.440, n = 14
# Excerpt: as §1, with “[…] Time spent in the target zone” for “PBS and ostruthin were administered intraperitoneally 30 min before mice behavioral tests (0.01 ml/g body weight). Each animal”, “measured firstly with the empty mesh enclosure” for “used only once, except”, “150 sec. […]” for “the wheel running test, which was carried out immediately after elevated plus maze.”
# T1 sequence (O14649 whole entry, species assumed): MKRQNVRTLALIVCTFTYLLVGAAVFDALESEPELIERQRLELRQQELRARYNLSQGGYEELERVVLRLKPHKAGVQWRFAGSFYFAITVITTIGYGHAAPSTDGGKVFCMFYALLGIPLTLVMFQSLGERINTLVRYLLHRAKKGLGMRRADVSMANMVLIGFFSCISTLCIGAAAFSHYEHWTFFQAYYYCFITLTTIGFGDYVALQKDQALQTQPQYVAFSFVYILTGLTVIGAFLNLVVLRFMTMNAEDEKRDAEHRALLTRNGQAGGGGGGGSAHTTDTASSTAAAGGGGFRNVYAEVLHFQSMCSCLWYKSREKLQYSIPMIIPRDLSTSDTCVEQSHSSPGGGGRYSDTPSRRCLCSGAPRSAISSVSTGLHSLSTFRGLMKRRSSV
smiles,measurement,setting,value
CC(C)=CCC/C(C)=C/Cc1cc2ccc(=O)oc2cc1O [ostruthin],IC50,TASK-1,41 µM
same,number of entries to the open arm,"[1]; 20 mg/kg i.p., vs 5 mg/kg",decreased
same,time spent on the open arm,"[1]; 20 mg/kg i.p., vs 5 mg/kg",decreased
same,number of entries to the open arm,"[1]; 2 and 5 mg/kg i.p. 30 min before test, vs 0 mg/kg",increased
same,number of entries to the open arm,"[1]; amlodipine experiment: single compound vs PBS, ostruthin 5 mg/kg or amlodipine 10 mg/kg, n = 6",increased
same,number of entries to the open arm,"[1]; ostruthin 5 mg/kg co-administered with amlodipine 10 mg/kg, vs amlodipine, n = 6",did not increase
same,time spent in the open arm,"[1]; ostruthin 5 mg/kg in the absence of amlodipine, vs PBS, n = 6",increased
same,increase of time spent in the open arm,"[1]; ostruthin 5 mg/kg in the presence of amlodipine 10 mg/kg, n = 6",did not
same,time difference in the interaction area (target zone),[2],increased the time difference in the interaction area non-significantly
